Experimental data from the SangsterLogP compilation.

Assay: method code SF, from DOI: 10.1016/0360-3016(89)90899-7, PMID: 2703405
Settings: pH 7.4

Row | SMILES | logD
1 | CC(=O)Nc1n[n+]([O-])c2cc(C)ccc2[n+]1[O-] | -0.4
2 | C=CCOc1ccc2c(c1)[n+]([O-])nc(N)[n+]2[O-] | 0.76
3 | Cc1ccc2c(c1)[n+]([O-])nc(N)[n+]2[O-] | 0.2
4 | Nc1n[n+]([O-])c2cc(OCC(O)CO)ccc2[n+]1[O-] (stereo unspecified) | -1.1
5 | [O-][n+]1cn[n+]([O-])c2ccccc21 | -0.8
6 | COc1ccc2c(c1)[n+]([O-])c(N)n[n+]2[O-] | 0
7 | Nc1n[n+]([O-])c2ccc(Cl)cc2[n+]1[O-] | 0.41

Second part, the compound after the results:

Row | logD | SMILES
8 | -0.6 | CC(=O)Nc1n[n+]([O-])c2ccccc2[n+]1[O-]
9 | -0.3 | COc1n[n+]([O-])c2ccccc2[n+]1[O-]
10 | -0.3 | Nc1n[n+]([O-])c2ccccc2[n+]1[O-]
11 | -1.4 | CC(=O)CC(=O)Nc1n[n+]([O-])c2ccccc2[n+]1[O-]
